This passage reports EC50 results from PubChem BioAssay AID489024 (Sanford-Burnham Center for Chemical Genomics, 2010).

Calls of active or inactive are those of the source.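 The calls were made as follows: active = compounds whose mean EC50, the dose giving half the maximal reporter activation, is at or below a set limit; inactive = the rest.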 Some results are limits rather than exact numbers.

For this experiment, the target named is CHO-CHOP luciferase reporter, UPR activation, luminescence. The experiment is described as follows: activators of PERK-eIF2a-CHOP UPR arm, confirmation, CHO-CHOP cells, luciferase luminescence (AID 489024).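 Also: compounds added alone to reporter cells with no tunicamycin stress co-treatment.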

With `O=C1/C(=C/c2ccccc2[N+](=O)[O-])COc2ccccc21`, the EC50 was 6.15 µM.

Take `Cc1c(C(=O)c2cccc3ccccc23)c2cccc3c2n1[C@H](CN1CCOCC1)CO3`: the EC50 is 12.4 µM.

For the compound `CCOC(=O)c1c(CSC(=N)N)n(-c2ccc(C)cc2)c2cc(Br)c(OC(C)=O)cc12`, the EC50 was > 80 µM (inactive).

In the case of `O=C1NC(=O)N(CCc2ccc(F)cc2)C(=O)/C1=C/C=C/c1ccccc1`, the EC50 is 4.74 µM.

As for `C/C(=N\NC(=O)c1cc2ccccc2cc1O)c1ccccn1`, the concentration for a half-maximal effect (EC50) was 3.71 µM.

Turning to `Cc1ccc(-c2csc3ncnc(Sc4nnc(CN5CCCCCC5=O)o4)c23)cc1`, the EC50 was 17.3 µM.

On to `Oc1ccc(/C=N/Nc2ncnc3c2ncn3Cc2ccccc2)cc1O`, for which the EC50 is 13.1 µM.

As to `COc1ccc(C(=O)Cn2c(C(=O)/C=C/c3ccccc3)nc3ccccc32)cc1`, the EC50 was 10.1 µM.

With `CCN(CC)c1ccc(/C=C2\C(=O)N(c3nnc(C)c(=O)[nH]3)N=C2C)cc1`, the EC50 result is “inactive”.

Take `Cc1ccc(NN2C(=O)C=C(c3ccccc3)C2=O)cc1`: the half-maximal effective concentration (EC50) is 14.5 µM.

`COc1ccc(-n2nc(C#N)c(Cl)cc2=O)cc1`: the 50% effective concentration (EC50) was 3.23 µM.

In the case of `CNC[C@@H](Cc1ccccc1)NC[C@@H](CC1CCCCC1)NCCCc1ccccc1`, the EC50 is 4.63 µM.

`Cc1c(C#N)c(NC(=O)CCl)n(Cc2cccs2)c1C`: the EC50 is > 80 µM (inactive).

As for `O=C(NCc1cccnc1)/C(=C/c1ccc(-c2cccc(Cl)c2)o1)S(=O)(=O)c1ccccc1`, the EC50 is 10.4 µM.

`COc1ccc(C(=O)Nc2ccccc2C(=O)N/N=C/c2ccccn2)cc1OC`: the EC50 is 6.44 µM.

As to `CCc1nc(N=Nc2c(O)[nH]c3ccccc23)c2c3c(sc2n1)CCC3`, the 50% effective concentration (EC50) is 13.7 µM.

With `COc1cc(CN2CCN(c3cc(C)ccc3C)CC2)ccc1O`, the EC50 is 11.7 µM.

`O=C(Nc1ccc(S(=O)(=O)N2CCCC2)cc1)c1ccc([N+](=O)[O-])o1`: the EC50 is 0.81 µM.

Take `COc1ccccc1N1CCN(/N=C/c2ccc(O)c(O)c2)CC1`: the concentration for a half-maximal effect (EC50) is 2.36 µM.

In the case of `CC1=NOC(=O)/C1=C\c1ccc(-c2ccc(Cl)cc2Cl)o1`, the EC50 is 13.5 µM.

Turning to `CCOC(=O)c1c2ccc(OCC(=O)N/N=C/c3ccc(C)cc3)cc2n2ccccc12`, the EC50 is > 80 µM (inactive).

For the compound `Cn1c(-c2cccc(OCc3ccccc3)c2)nc2c1c(=O)[nH]c(=O)n2Cc1ccccc1`, the EC50 is 13.8 µM.

With `COc1ccc(N2CCN(Cc3cc(=O)oc4cc(-c5ccccc5)c(O)cc34)CC2)cc1`, the EC50 is > 80 µM (inactive).

`Fc1ccc(NC(=S)Nc2nccs2)cc1`: the EC50 result is “inactive”.

Take `COc1ccccc1N=c1oc2c(OC)cccc2cc1C(=O)NCc1ccco1`: the EC50 was > 80 µM (inactive).

Regarding `Cn1c(/C=C/c2ccc([N+](=O)[O-])o2)nc2ccccc2c1=O`, the EC50 was 6.93 µM.

Turning to `COc1ccc(/C=N/Nc2cc(C)nc(-n3nc(C)cc3C)n2)c(OC)c1`, the EC50 is 7.32 µM.

In the case of `Cc1ccc(-c2nn3c(C)nnc3s2)cc1NC(=O)c1ccc(-c2ccc(Cl)cc2Cl)o1`, the EC50 is 14 µM.

On to `Oc1ccc2ccccc2c1N=Nc1ccccn1`, for which the EC50 was 8.55 µM.

In the case of `O=c1nc(Nc2cccc(Cl)c2)oc2cc(Cl)oc(=O)c12`, the EC50 was 11.5 µM.

Take `CCc1nn(-c2cc(Oc3cccc4ccccc34)nc(-c3ccccc3)n2)c(N)c1C#N`: the EC50 result is “inactive”.

As to `O=C1NC(=O)N(Cc2ccccc2)C(=O)/C1=C\C=C\c1ccco1`, the EC50 was > 80 µM (inactive).

As for `CCSC1(SCC)N=C(N)C2(C#N)C(c3ccc(OC)c(OC)c3OC)C12C#N` (configuration not stated), the EC50 was 14.7 µM.

Regarding `O=C(/C=C/Sc1ccc(C(F)(F)F)cn1)c1ccccc1`, the EC50 was 7.85 µM.

In the case of `CC(C)c1cccc(-c2ccc3c(c2)S(=O)(=O)c2cccc(C(=O)NCc4ccccc4Cl)c2C3=O)c1`, the EC50 is 4.51 µM.

In the case of `COc1cccc(N=Cc2c(O)c3ccccc3oc2=O)c1`, the EC50 was 8.69 µM.

With `Oc1c(C(c2ccccn2)N2CCC(Cc3ccccc3)CC2)cc(Cl)c2cccnc12` (configuration not stated), the EC50 result is “inactive”.

For `Oc1ccc(/C=N/N2CCN(C3c4ccccc4-c4ccccc43)CC2)cc1O`, the EC50 entry was “inactive”.

For `CCOc1cc(NC(=O)CCl)c(OCC)cc1NC(=O)CCl`, the EC50 result is “inactive”.

On to `Cc1cc(-n2c(C)cc(C(=O)CCl)c2C)no1`, for which the EC50 was 7.75 µM.

Consider `COC(=O)Oc1ccc(/C=C/C(=O)OC(C)C)cc1OC(=O)OC`, for which the EC50 is 14 µM.

In the case of `O=C(Nc1nccs1)c1cccc(N2C(=O)c3cccc4c([N+](=O)[O-])ccc(c34)C2=O)c1`, the half-maximal effective concentration (EC50) is 11.5 µM.

On to `O=C(N/N=C/c1cccc2cccnc12)c1ccccc1O`, for which the EC50 is 18.1 µM.

With `Cn1c2ccccc2c2cc(/C=N/NC(=O)c3cc(O)ccc3O)ccc21`, the EC50 was 5.37 µM.

For `Cc1c(C#N)c(NC(=O)CCl)n(Cc2ccc(F)cc2)c1C`, the EC50 was 16 µM.

For the compound `Cc1cccc(CSc2cccc3cccnc23)c1`, the EC50 was 7.72 µM.

Turning to `Cc1cc(N/N=C/c2ccccc2[N+](=O)[O-])nc(-n2nc(C)cc2C)n1`, the EC50 was 7.44 µM.

For the compound `O=C(N/N=C(\c1ccccc1)c1cccnc1)c1cccc(F)c1`, the EC50 is 9.74 µM.

In the case of `C/C(=N\NC(=O)c1ccc(F)cc1)c1ccccn1`, the EC50 was 8.27 µM.

Consider `CC(C)c1ccc(NC(=O)/C(C#N)=C/c2ccncc2)cc1`, for which the EC50 was 13.6 µM.

Take `N#Cc1cc([N+](=O)[O-])c(-n2nnc3ccccc32)c([N+](=O)[O-])c1`: the concentration giving a half-maximal response (EC50) is 18.5 µM.

With `O=[N+]([O-])c1cc(O)c2ncccc2c1`, the EC50 was 13.3 µM.

Consider `Cc1ccc(CS(=O)(=O)c2ncc(Cl)c(C(=O)Nc3ccc(OC(F)F)cc3)n2)cc1`, for which the EC50 is > 80 µM (inactive).

`CCCn1c(CC)nc([N+](=O)[O-])c1S(=O)(=O)c1ccccc1`: the EC50 was > 80 µM (inactive).

`Cc1ccc(NC(=O)c2ccc(N/N=C/c3cccc(O)c3)c([N+](=O)[O-])c2)cc1`: the 50% effective concentration (EC50) is 8.03 µM.

For the compound `COc1ccc(N=Cc2c(O)c3ccccc3oc2=O)cc1`, the EC50 is 8.64 µM.

As to `CSc1nnc(NC(=O)c2nc(S(=O)(=O)Cc3ccccc3)ncc2Cl)s1`, the EC50 was > 80 µM (inactive).

Turning to `Cc1ccc(C(C[N+](=O)[O-])n2nc(C)cc2C)cc1` (configuration not stated), the EC50 is 9.75 µM.

Regarding `Cc1ccc(-c2nc(NC(=O)c3nn(C)cc3[N+](=O)[O-])sc2C)cc1`, the EC50 is 8.48 µM.

As for `CCOC(=O)c1cnc(-n2nc(C)cc2C)nc1NC1CCCCC1`, the EC50 was > 80 µM (inactive).

As for `CCOc1cc(/C=N/Nc2cc(C)nc(-n3nc(C)cc3C)n2)ccc1O`, the EC50 is 13.6 µM.

In the case of `CCOc1ccccc1-n1c(SCC(=O)Nc2ccc(CC)cc2)nc2n[nH]c(C)c2c1=N`, the EC50 is 7.22 µM.

Take `CN=c1scc(-c2ccco2)n1/N=C/c1ccc(O)c(O)c1`: the EC50 was 1.23 µM.

On to `CC(C)(C)C(=O)OCc1nc(-c2ccc(O)c(O)c2)cs1`, for which the EC50 is 1.38 µM.

For the compound `O=C(NC(=S)Nc1ccc(NC(=O)c2cccs2)cc1)c1cc2ccccc2o1`, the EC50 result was “inactive”.

In the case of `C/C(=N\NC(=O)c1ccc(Cl)cc1)c1ccccn1`, the EC50 is 8.06 µM.

Consider `C=CCn1nc([N+](=O)[O-])nc1Sc1cccc2cccnc12`, for which the EC50 was 6.67 µM.

Consider `O=C(NC1CCCC1)C(c1ccc(F)cc1)N(Cc1ccc(Cl)cc1)C(=O)CCl` (configuration not stated), for which the concentration giving a half-maximal response (EC50) is 7.8 µM.

Turning to `CCOc1ccc(-c2nnc(SCC(=O)Nc3ccc4c(c3)c3ccccc3n4CC)n2N)cc1`, the EC50 was 12.6 µM.

Consider `O=C(Nc1nc(-c2ccc(F)c(F)c2)cs1)Nc1ccc(F)cc1F`, for which the EC50 is > 80 µM (inactive).

As to `CCn1cc(C(=O)NC(=S)Nc2sc3c(c2C(=O)OC)CCCCCC3)cn1`, the EC50 result is “inactive”.

`CCOC(=O)c1cnc(Nc2nc3ccccc3o2)nc1CSC(=S)N1CCCCC1`: the EC50 was 1.3 µM.

With `Cc1sc(NC(=O)c2cc(-c3ccc(Cl)cc3)nc3ccccc23)c(C(N)=O)c1C`, the EC50 result was “inactive”.

Regarding `Nc1cccc(-c2nc3cc(S(=O)(=O)c4ccc5oc(-c6cccc(N)c6)nc5c4)ccc3o2)c1`, the EC50 result is “inactive”.

Turning to `O=C(CCl)c1ccc(Cc2ncc(C(F)(F)F)cc2Cl)s1`, the EC50 was 9.69 µM.

`CCN(CC)c1ccc(C=C2C(=O)NC(=S)NC2=O)cc1`: the half-maximal effective concentration (EC50) was 11.9 µM.

As for `O=c1[nH]c(-c2ccc(-c3cccc(Cl)c3)o2)nc2ccccc12`, the EC50 was 12.9 µM.

Regarding `CN(C)C(=O)CSc1cccc2cccnc12`, the EC50 was 8.15 µM.

Take `CCOc1ccc(N2C(=O)CC(N(O)c3ccccc3)C2=O)cc1` (configuration not stated): the EC50 is 9.63 µM.

Take `CCOc1cc(/C=N/NC(N)=S)cc(Br)c1OCc1ccccc1C`: the EC50 entry was “inactive”.

In the case of `c1ccc(-c2nc(N3CCCCCC3)c3ccccc3n2)nc1`, the EC50 result is “inactive”.

Turning to `CCCCCCCCCn1c2c(c(=N)c3c1CCC3)CCCC2`, the EC50 is 11.3 µM.

Take `COc1cccc2sc(Nc3nnc(-c4cccs4)o3)nc12`: the EC50 was 6.83 µM.

As to `Cc1cc(C(=O)CCl)c(C)n1-c1cccc(S(=O)(=O)N2CCOCC2)c1`, the EC50 was 7.44 µM.

In the case of `O=C(/C=C1\NC2(CCCC2)Cc2ccccc21)C(=O)N/N=C/c1ccc(O)c(O)c1`, the EC50 was 9.4 µM.

Take `O=C(CSc1ccc2ccccc2c1)NCCc1ccc(O)c(O)c1`: the EC50 was 8.44 µM.

With `O=C(CSc1cccc2cccnc12)N/N=C/c1cccnc1`, the EC50 is 7.64 µM.

On to `COc1ccc(/C=C/C(=O)Oc2ccc(C)cc2)cc1`, for which the EC50 entry is “inactive”.

Take `C/C(=N\NC(=O)c1ccc(Cl)c(Cl)c1)c1ccccn1`: the half-maximal effective concentration (EC50) was 3.26 µM.

As to `COc1ccc(C2c3ccc4ccccc4c3Oc3ncn(CCCN(C)C)c(=N)c32)cc1` (configuration not stated), the EC50 was 6.82 µM.

On to `O=C(Nc1ccc2oc(-c3ccc4ccccc4c3)nc2c1)c1ccc2c(c1)OCCO2`, for which the EC50 was 19.8 µM.

Turning to `CCOC(=O)/C(=C\c1ccc(Cl)cc1)c1nc2sc(C)c(C)c2c(=O)[nH]1`, the EC50 is > 80 µM (inactive).

Consider `Cc1cc(C)nc(S/C=C/C(=O)c2ccccc2)n1`, for which the EC50 is 6.72 µM.

With `O=C(Nc1nc2ccc(F)cc2s1)c1ccccn1`, the EC50 is 7.16 µM.

For the compound `CN1CSC(=S)N(C)C1`, the EC50 is > 80 µM (inactive).

In the case of `Oc1c(CN2CCc3ccccc3C2)cc(Cl)c2cccnc12`, the 50% effective concentration (EC50) was 12 µM.

On to `S=C1SCN(Cc2ccco2)CN1Cc1ccco1`, for which the EC50 is 11.4 µM.

Broadly, the EC50 is the concentration giving half of the maximal effect.
